# How the values were obtained:
# C. elegans [1] = assay: plate (drop) assay: nematodes fed E. coli lawn pre-loaded with the compound; format: in vivo
# Procedure: (§1) Using two kinds of assays, the optimal concentration of compounds that inhibit the activity SERCA has been determined. The first assay is designated the drop or plate assay in which the nematodes are fed E. coli strains pre-loaded with the compound. In a second assay, the compound is administrated to the worm in liquid culture.
# A standard plate drop assay is performed according to the following protocol. 4 ml NGM agar (see “The nematode C. elegans” Ed. by William B. Wood and the Community of C. elegans Researchers, CSHL Press, 1988, pg589) is into 3 cm plates and seeded with approximately 5 μl of an E. coli overnight culture and grown preferably for one week at room temperature. Approximately 10 μl of test compound dissolved in DMSO or other suitable solvent is pipetted onto the bacterial lawn so that the lawn is covered completely. After overnight soaking in or compound, one C. elegans (L4 stage) per plate is put onto the bacterial lawn. Plates are incubated at 21° C. and checked after some hours.
# [2] = test system: C. elegans wild-type worms and mutant strain unc-31; assay: effect on pharynx pumping behaviour; format: in vivo
# Procedure: The effect of thapsigargin on pharynx pumping behaviour was also determined. In wild-type worms, all animals stopped pumping after 10 minutes.
# [3] = test system: C. elegans strains unc-31 and srf-3; assay: production of progeny after thapsigargin treatment in different C. elegans strains; format: in vivo
# Procedure: The effect of thapsigargin on the production of progeny was determined for a number of different C. elegans strains. The numbers of progeny produced following thapsigargin treatment was counted for an average of 15 animals, the results are summarised as follows: […]
# [4] = test system: C. elegans strain UG530 (harboring plasmid pGK28); assay: thapsigargin sensitivity of worms carrying the pGK28 (Phe259Val SERCA) transgene; format: in vivo; details: for stage reached by progeny on thapsigargin: 10 μl drops of 5 to 0.05 mM thapsigargin in DMSO, 5 days
# Procedure: FIG. 3 illustrates the growth of C. elegans strain UG530 (strain harboring plasmid pGK28) on different concentrations of thapsigargin. The stage of the progeny was determined 5 days after adults were put on the plates. […] These were differentiated based on a GFP marker also present on this transgene.
# The effect of thapsigargin on worms carrying a pGK28 transgene was measured in the following way: 10 μl of thapsigargin dissolved in DMSO (5, 2.5, 1, 0.5, 0.25, 0.1, and 0.05 mM respectively) was added onto a drop of E. coli strain OP50cs2 in 12-well plates. The wells with compounds were placed at 10 C. overnight, after which […] young adults were added to the wells. The pharynx pumping rate and movement behaviour was scored for the ten worms after 10 minutes and after one hour (short term effect). Furthermore the wells were scored for protruding vulva and rectum, production of progeny (few eggs in body) after one day (mid-term-effects), and for progeny after four days (long term effect)
# C. elegans [5] = assay: liquid assay: compound administered to the worm in liquid culture; format: in vivo
# Description: as §1
# SERCA Phe256Val = details: substitution Phe256Val in hamsters (Yu et al., 1999); cited from earlier work
# [6] = mutant strain unc-31, 1 mM thapsigargin
smiles,measurement,setting,value
"O=C1C=CC(=O)C=C1 [1,4-benzoquinone]",observable effect at the highest concentration tested,"C. elegans [1]; 100 mM drop, 500 μM end concentration",did not result in a clear observable effect
C/C=C(/C)C(=O)O[C@H]1C(C)=C2[C@H]([C@@H]1OC(=O)CCCCCCC)[C@@](C)(OC(C)=O)C[C@H](OC(=O)CCC)[C@@]1(O)[C@H]2OC(=O)[C@@]1(C)O [thapsigargin],pumping speed after restart,[2]; [6],one third of normal speed
same,restart of pumping,[2]; [6],some start again after half an hour
same,time after which all worms stopped pumping,[2]; [6],10 min
same,time after which all animals stopped pumping,[2]; wild-type worms,10 min
same,number of progeny produced,"[3]; strain srf-3, 1 mM thapsigargin, average of 15 animals (control 50)","18,3"
same,number of progeny produced,"[3]; strain unc-31, 0.5 mM thapsigargin, average of 15 animals (control 132)",35
same,number of progeny produced,"[3]; strain unc-31, 1 mM thapsigargin, average of 15 animals (control 132)","5,6"
same,stage reached by progeny on thapsigargin,[4]; GFP-animals harboring pGK28 (Phe259Val SERCA),grew up to adult or L4
same,amount of progeny on thapsigargin,[4]; nematodes harboring the Phe259Val SERCA mutant compared with wild-type,slightly more progeny than wild-type
same,stage reached by progeny on thapsigargin,[4]; non-GFP animals (not harboring the mutated SERCA),arrested at L1 and L2 and never grew up further than L3
same,protruding vulva and rectum-phenotype,[4]; strain UG530 (harboring pGK28) treated with thapsigargin,not or were only occasionally observed
same,protruding vulva and rectum-phenotype,[4]; wild-type nematodes treated with thapsigargin,very often observed
same,appearance and movement of the worms,"C. elegans [1]; 5 μM, 2.5 μM and 1.25 μM","pale and thin and have a slow and irregular movement, with an increased amplitude"
same,brood size,"C. elegans [1]; 5 μM, 2.5 μM and 1.25 μM",very small
same,"gonad, eggs and vulva","C. elegans [1]; 5 μM, 2.5 μM and 1.25 μM","defective gonad with only very few eggs, and a protruding vulva"
same,"plate drop response, backing, pumping, constipation","C. elegans [1]; 5 μM, 2.5 μM and 1.25 μM","No plate drop response is observed, and the worms show poor backing, reduced pumping and strong constipation"
same,rectum,"C. elegans [1]; 5 μM, 2.5 μM and 1.25 μM",Some worms also have a protruding rectum
same,restart of pharynx pumping,"C. elegans [1]; 5 μM, 2.5 μM and 1.25 μM","Within an hour the worms restart pumping, although at a low level"
same,time until the nematode stops pharynx pumping,"C. elegans [1]; 5 μM, 2.5 μM and 1.25 μM",≤ 10 min
same,stage reached by progeny,"C. elegans [1]; 5 μM, 2.5 μM and 1.25 μM, after four days",Progeny reaches L2 stage only after four days
same,brood size,"C. elegans [1]; lower concentrations 0.5 μM, 0.25 μM, 0.125 μM",reduced brood size
same,size and movement of the worms,"C. elegans [5]; 100, 50 and 20 μM",small worms which show slow and loopy movement
same,vulva and progeny,"C. elegans [5]; 100, 50 and 20 μM","protruding vulva, and no progeny (or no progeny that grows up)"
same,progeny and growth,C. elegans [5]; lower concentrations 10 μM and 5 μM,reduced number of progeny and delayed growth
same,resistance to thapsigargin inhibition,SERCA Phe256Val,40 fold
"CC(C)(C)c1cc(O)c(C(C)(C)C)cc1O [2,5-di-tert butylhydroquinone]",phenotype of the worms,C. elegans [1]; 500 μM,"pale, starved, thin worms with slow movement, defective gonad, constipated and reduced brood size"
same,phenotype of worms and progeny,C. elegans [5]; 1 mM,progeny exhibiting delayed growth and the worms be observed to be thinner
C/C=C(/C)C(=O)O[C@H]1C(C)=C2[C@H]([C@@H]1OC(=O)CCCCC)[C@@](C)(OC(C)=O)C[C@H](OC(=O)CCC)[C@@]1(O)[C@H]2OC(=O)[C@@]1(C)O [Thapsigargicin],brood size,C. elegans [1]; lower concentrations 3 μM and 1.5 μM,slightly reduced brood size
same,phenotype of worms and progeny,"C. elegans [5]; 1000 μM, 250 μM, 62.5 μM and 16 μM","small worms with slow and loopy movement, a protruding vulva, and no progeny (or no progeny that grows up)"
same,growth and progeny,C. elegans [5]; lower concentration 10 μM,delayed growth and reduced progeny

# Source: patent publication US6540996B1, “Compound screening methods” (priority 1999, dated 2003)
